Test results from ChEMBL document CHEMBL1129337, “Aristeromycin-5'-carboxaldehyde: a potent inhibitor of S-adenosyl-L-homocysteine hydrolase” (J Med Chem, 1996).

Tests used:
Adenosylhomocysteinase [1] = target: T1, Adenosylhomocysteinase (Homo sapiens, UniProt P23526); test: Binding affinity towards purified recombinant human placental S-adenosyl-L-homocysteine hydrolase
Target sequence in this assay (P23526 whole entry): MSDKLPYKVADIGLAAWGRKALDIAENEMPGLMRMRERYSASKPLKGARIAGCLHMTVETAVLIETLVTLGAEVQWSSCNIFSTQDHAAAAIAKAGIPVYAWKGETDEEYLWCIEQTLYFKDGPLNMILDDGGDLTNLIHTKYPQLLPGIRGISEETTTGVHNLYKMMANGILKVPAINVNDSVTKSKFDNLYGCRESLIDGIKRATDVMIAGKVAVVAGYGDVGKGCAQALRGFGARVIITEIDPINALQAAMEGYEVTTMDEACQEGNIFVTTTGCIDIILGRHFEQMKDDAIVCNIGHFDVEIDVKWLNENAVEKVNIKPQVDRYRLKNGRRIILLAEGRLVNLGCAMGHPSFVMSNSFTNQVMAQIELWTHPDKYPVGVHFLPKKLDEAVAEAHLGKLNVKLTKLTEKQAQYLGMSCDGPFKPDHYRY

Adenosylhomocysteinase [2] = target: T1, Adenosylhomocysteinase
Target sequence in this assay (P23526 2-432 limits assumed): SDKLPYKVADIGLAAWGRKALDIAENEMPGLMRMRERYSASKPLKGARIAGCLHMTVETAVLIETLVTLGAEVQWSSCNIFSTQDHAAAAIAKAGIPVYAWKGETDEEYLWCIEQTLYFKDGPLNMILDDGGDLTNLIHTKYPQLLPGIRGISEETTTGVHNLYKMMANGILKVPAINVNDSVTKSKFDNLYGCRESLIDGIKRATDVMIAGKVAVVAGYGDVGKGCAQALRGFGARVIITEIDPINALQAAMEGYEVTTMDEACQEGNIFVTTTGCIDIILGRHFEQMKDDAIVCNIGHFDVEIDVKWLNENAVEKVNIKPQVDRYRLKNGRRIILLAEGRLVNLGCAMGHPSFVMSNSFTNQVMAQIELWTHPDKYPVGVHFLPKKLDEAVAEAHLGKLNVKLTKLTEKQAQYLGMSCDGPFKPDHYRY
Description: Apparent inactivation rate constant (k2) for S-adenosyl-L-homocysteine hydrolase

Ki (Adenosylhomocysteinase [1]) [nM] | k2 (Adenosylhomocysteinase [2]) [min⁻¹] | SMILES
39 | 0.65 | Nc1ncnc2c1ncn2[C@@H]1O[C@@H](C=O)[C@@H](O)[C@H]1O
4500 | 0.37 | Nc1ncnc2c1ncn2[C@@H]1C[C@H](C=O)[C@@H](O)[C@H]1O
43 | 0.22 | Nc1ncnc2c1ncn2[C@@H]1O[C@H](C=O)[C@@H](O)[C@H]1O
273 | 1.2 | Nc1ncnc2c1ncn2[C@@H]1C[C@@H](C=O)[C@@H](O)[C@H]1O
